For data set [1], the system named is mice. Particulars: mouse, in vivo, sc.
Method: (§2) In a control group, mice were injected with 0.15 ml nonliposomal bupivacaine at a concentration of 0.5%, the highest normally tolerated. Cooling was applied either over the injection site or over the abdomen contralateral to the injection site.
The subject of a further data set is male Swiss-Webster mice. As to the kind of experiment: Analgesia (sensory block) after subcutaneous injection, response to cutaneous electrical stimulation. The class given is in vivo. Conditions: 0.15 ml at 0.5%. On the procedure: Analgesia was assessed in male Swiss-Webster mice, as described in Example 2, using response to cutaneous electrical stimulation. Prior to administering analgesic, the control vocalization threshold (current required to produce a vocalization response) was determined.
For testing, 150 μl of test solution was injected subcutaneously over the abdomen, and sensory block was assessed at regular intervals, i.e., 15 min for 0.5% BUP formulations and 30 min for 1% and 2% formulations. Failure to vocalize in response to the threshold current was taken as evidence of analgesia. Testing was terminated when two successive stimuli provoked a vocalization. Duration of analgesia was taken as the time from injection to the last stimulus at which no vocalization occurred.
(§1) Analgesia regressed within two hours (see FIG. 13).
The Institutional Animal Care and Use Committee approved all experiments. Male Swiss-Webster mice weighing 28±3 g were used. Animals had free access to food and water, and were maintained on a 12 hour dark-light cycle. Prior to testing, the hair overlying the abdomen was shaved. Analgesia was assessed using response to cutaneous electrical stimulation. […] The vocalization threshold was assessed prior to testing, and testing was carried out as described above.

The subject of data set [2] is mice. As to the kind of experiment: Tolerability of BUP concentration injected subcutaneously. Particulars: 0.15 ml injected.
Method: as §2
The nature of data set [3]: BUP partition between octanol and aqueous ammonium sulfate at various pH. Particulars: for logD: octanol/aqueous ammonium sulfate, read-out: BUP octanol/(NH4)2(SO4) partition coefficient (converted). The class given is physicochemical.
A short description of data set [4]: pH-dependent aqueous solubility of BUP in 250 mM ammonium sulfate. The data set is classed as physicochemical. Conditions: more concentrated solutions, pH higher than about 6. On the procedure:
In the present case, the liposomes were incubated with a 50 mg/ml solution of BUP HCl for 45 minutes at 60° C. During this process, the extraliposomal pH should be maintained at a pH less than about 6, e.g. about 5.5, to ensure BUP solubility and prevent precipitation. […] The data was produced by adding various levels of BUP, as indicated, to 250 mM ammonium sulfate at differing pH's. The samples were vortexed and centrifuged, and the amount of dissolved BUP in the supernatant was determined. […] Again, aqueous solubility substantially decreases between pH 6 and 8.

Data set [5] deals with mice. Particulars: mouse, in vivo. On the procedure:
as §1
To determine the effect on overall body temperature of this treatment, the rectal temperature was measured in all animals cooled over the site of injection (ipsalateral) or over the contralateral abdomen, using both GMV-encapsulated bupivacaine and nonencapsulated (plain) bupivacaine. […] For FIG. 14A, cooling was initiated at zero hours (with administration) and discontinued at nine hours; for FIG. 14B, cooling was initiated at zero hours and discontinued at one hour. There were no significant differences observed as a function of the site of cooling. […] Animals in the GMV group (FIG. 14A) returned to baseline body temperature within about 10 minutes after cessation of cooling.

Each structure is given as a SMILES string. Where two headings read alike, the source gives them in different places.

In the case of `CCCCN1CCCCC1C(=O)Nc1c(C)cccc1C` (stereo not drawn) [BUP, bupivacaine], the toxicity result with mice [1] was “proved toxic”. Further, in the data set on male Swiss-Webster mice (s.c., mice, with or without cooling (FIG. 13)), the “time in which analgesia regressed” value is “two”. For the same compound, the “effect of skin cooling (about 22° C.) on analgesia” value in the data set with male Swiss-Webster mice (cooling at injection site or contralateral vs no cooling) is on record as “no difference”. The “highest concentration normally tolerated” value with mice [2] was 0.5%. Further, the logD in data set [3] (pH 2) was 0.0253; in data set [3] (pH 4) it was -0.42; in data set [3] (pH 6), -0.456; in data set [3] (pH 8) it was 1.18. Also, the “BUP, mg/ml in (NH4)2(SO4)” value in data set [3] (pH 2) was found to be 2.30 mg/mL; in data set [3] (pH 4) it was 3.32 mg/mL; in data set [3] (pH 6), 3.62 mg/mL; in data set [3] (pH 8), 0.32 mg/mL. The “BUP, mg/ml in octanol” value came to 2.45 mg/mL in data set [3] (pH 2), 1.25 mg/mL in data set [3] (pH 4), 1.28 mg/mL in data set [3] (pH 6) and 4.90 mg/mL in data set [3] (pH 8). Moreover, in data set [4], the “aqueous solubility of BUP (FIG. 2)” value is listed as “large amounts of BUP precipitated”. In addition, the “delayed return to normal body temperature after cessation of cooling” value in the data set with mice [5] was 25 to 35 min.

(Values after patent publication US7357944B2, “Liposomal analgesic drug compositions prepared in GMV using an ammonium sulfate gradient” (New York University, priority 1998, dated 2008).)
